Data on five compounds can be found in patent US20230116399A1, “Tumor Homing Statin Derivatives” (Da Zen Theranostics, Inc., priority 2019, published 2023).

Data set [1] concerns L858R/T790M vs wild-type EGFR. Conditions: inhibiting phosphorylation of EGFR; cited from earlier work.
Data set [2] in a line: Stability of conjugates in mouse blood serum at 37° C. for 3 hours (LC-MS/MS). Conditions: for amount of conjugate at 3 h (value at time 0 is 100) / degradation/release of the statin from the conjugate: mouse blood serum, 37° C., 3 h; for stability when exposed to serum: serum at body temperature for at least 3 hours. In kind it is in vitro ADME. The protocol:
Comparative example 1A-V: Synthesis of DZ1-SIM rapid release ester (RRE) and comparison of stability to an ELSD (here: DZ1-SIM). A rapid release ester (RRE) is synthesized as described below, linking DZ1 to Simvastatin (DZ1-SIM RRE or “DZ2c”, compound 8) and is tested in comparison to the ELSD (here: DZ1-SIM or “DZ2b”, compound 14, synthesized as described above). Both compounds are incubated in mouse blood serum at 37° C. for 3 hours, after which samples are taken and tested for degradation of the conjugates by testing for the unconjugated statin as described in example 6 herein-below (LC-MS/MS-025 with positive ion, ESI, MRM detection and HPLC). […] The value at time 0 for each of the samples is 100.

The test system of another data set is 22RV1 (PC). In words: MTT cell viability, 22RV1. In kind it is cell-based, human. Here is the method:
(§1) Cell culture: In the following examples, unless otherwise specified, all cell lines are purchased from American Type Culture Collection and cultured in American Type Culture Collection (ATCC)-recommended media, with fetal bovine serum (FBS) to a final concentration of 10% and 1×penicillin/streptomycin at 37° C. with 5% CO2 in a cell culture incubator, unless otherwise specified. Unless otherwise specified, culture is 2D. Where culture is 3D, low attachment plates are used, with the same media. C4-2B (parental cell line and drug-resistant cells derived therefrom) are cultured in RPMI-1640 with 10% FBS. MDVR cells (an Enzalutamide-resistant variety of C4-2B prostate cancer cells formed as described in Example 4 below) are cultured as indicated for the parental C4-2B cells. 22RV1 Prostate Cancer (PC) cells (ATCC® CRL-2505™, a human prostate carcinoma cell line of epithelial morphology) are cultured in RPMI-1640 with 10% FBS. A549 cells (ATCC® CCL-185™, a human lung carcinoma cell line of epithelial morphology) are cultured in F-12K medium with 10% FBS. A549/DDP cells (Cells were described in DOI: 10.3892/mmr.2014.2163 and in doi: 10.7150/jca.19426; cisplatin resistant cells may be established from exposing parental A549 cells to cisplatin for an extended time). MDR A549/cisplatin lung adenocarcinoma cell line, drug resistant) are cultured in F-12K medium with 10% FBS. H1975 cells (ATCC® CRL-5908™, a human adenocarcinoma non-small cell lung cancer cell line of epithelial morphology) are cultured in RPMI-1640 medium with 10% FBS; H1975 cells are a cell model for human lung cancer that is resistant to Gefitinib (an EGFR inhibitor drug used for treatment of certain breast, lung and other cancers). H1650 cells (ATCC® CRL-5883™, a adenocarcinoma/bronchoalveolar carcinoma lung cancer cell line of epithelial morphology) are cultured in RPMI-1640 medium with 10% FBS. […]
(§2) […] For each cell line, the IC50 is determined for each drug, i.e. the ELSD, the ALSD, and for the corresponding unconjugated statin (Simvastatin), in concentrations from 0.1-100 μM. […]

Another data set concerns EZ-resistant C4-2B (PC). In words: MTT cell viability, EZ-resistant C4-2B (MDVR). In kind it is cell-based. Conditions: Homo sapiens, 48 h / 24 hours, relative IC50. The protocol: as §1, with “FBS.” for “FBS. H1975 cells (ATCC® CRL-5908™, a human adenocarcinoma non-small cell lung cancer cell line of epithelial morphology) are cultured in RPMI-1640 medium with 10% FBS; H1975 cells are a cell model for human lung cancer that is resistant to Gefitinib (an EGFR inhibitor drug used for treatment of certain breast, lung and other cancers). H1650 cells (ATCC® CRL-5883™, a adenocarcinoma/bronchoalveolar carcinoma lung cancer cell line of epithelial morphology) are cultured in RPMI-1640 medium with 10% FBS.”

The next data set concerns PC3 (PC). In words: MTT cell viability, PC3. In kind it is cell-based. Conditions: Homo sapiens, 48 h / 24 hours, relative IC50. Here is the method:
as §1, with “FBS.” for “FBS. H1975 cells (ATCC® CRL-5908™, a human adenocarcinoma non-small cell lung cancer cell line of epithelial morphology) are cultured in RPMI-1640 medium with 10% FBS; H1975 cells are a cell model for human lung cancer that is resistant to Gefitinib (an EGFR inhibitor drug used for treatment of certain breast, lung and other cancers). H1650 cells (ATCC® CRL-5883™, a adenocarcinoma/bronchoalveolar carcinoma lung cancer cell line of epithelial morphology) are cultured in RPMI-1640 medium with 10% FBS.”

A further data set relates to A549 (LC). In words: MTT cell viability, A549. In kind it is cell-based, human. The conditions noted are these: Homo sapiens, 48 h / 24 hours, relative IC50. The protocol:
as §1

The test system of a further data set is A549DDP (LC). In words: MTT cell viability, A549DDP. In kind it is cell-based, human. Conditions: Homo sapiens, A549/DDP, 48 h / 24 hours, relative IC50. Here is the method:
as §1, §2

The subject of the next data set is H1975 (LC). In words: MTT cell viability, H1975. In kind it is cell-based, human. The conditions noted are these: Homo sapiens, NCI-H1975, 48 h / 24 hours, relative IC50. Here is the method: as §1
A further data set concerns H1650 (LC). In words: MTT cell viability, H1650. In kind it is cell-based, human. The conditions noted are these: Homo sapiens, NCI-H1650, 48 h / 24 hours, relative IC50. The protocol:
as §1

The subject of the next data set is PC9 (LC). In words: MTT cell viability, PC9. In kind it is cell-based, human. Conditions: Homo sapiens, 48 h / 24 hours, relative IC50. The protocol: as §1
For a further data set, the system named is H446 (LC). In words: MTT cell viability, H446. Conditions: Homo sapiens, NCI-H446, 48 h / 24 hours, relative IC50. In kind it is cell-based, human. The protocol:
as §1

A further data set concerns human cancer cell lines. In words: MTT cell viability, summary over the cancer cell lines. In kind it is cell-based. Conditions: summary of the table of IC50, read-out: range of IC50 over the cancer cell lines. The protocol: Example 7: The experiment is performed by cell assay essentially as described above in example 4. […]
The cell lines are cultured according to the protocols as described above, then each of the cell lines are treated for 48 h either with an ELSD (here of formula FId, “DZ2b” or compound 14) or with an ALSD (here of formula FIId, “DZ2a” or compound 7). For each cell line, the IC50 is determined for each drug, i.e. the ELSD, the ALSD, and for the corresponding unconjugated statin (Simvastatin), in concentrations from 0.1-100 μM.
In the controls (not shown in the figures), the cells are exposed to DMSO (vehicle) for a final concentration that equals the highest concentration of the drug tested, to a maximum concentration less than 0.1% v/v. […] The absorbance density of the supernatant is read on a 96-well microplate reader at wavelength 595 nm.

Data set [3] deals with 22Rv1 human prostate carcinoma tumors. In words: Tumor volume of 22Rv1 tumors grown subcutaneously in mice. The conditions noted are these: 8 mg/kg, intravenously injected. In kind it is in vivo. The protocol: Example 1D: 22Rv1 human prostate carcinoma cells are cultured as described above, separated from the medium, resuspended in 50% phosphate buffered saline (PBS) and 50% BD Matrigel™ (BD Biosciences, CA), and then the re-suspended cells are injected and grown subcutaneously in mice. […] The decrease of the THSD in the tumors at 2 and 4 weeks, respectively, as determined by NIR signal, is less than about 30%.
Example 1E: 22Rv1 human prostate carcinoma cells are cultured, injected and grown subcutaneously in mice as described above in example 1D. Tumor volume is monitored by measuring the size by caliper and calculating volume as described in example 9 below. The mice are intravenously injected with the following: ALSD of formula FIId, “DZ2a”, compound 7, the corresponding unconjugated dye (here: DZ1), unconjugated Simvastatin, a statin drug (SIM), and docetaxel (DOC), a cancer drug, and a mixture of the ALSD with DOC. Each active was administered in an amount of 5 mg/kg for the ALSD, DZ1, and SIM, except, in case of DOC, 8 mg/kg. A slower rate of increased tumor volume indicates tumor suppressive activity.

The subject of data set [4] is RhoA/B in H-1975 human lung cancer tumors. In words: RhoA/B membrane staining of tumor tissue, H-1975 mouse model. In kind it is in vivo, mice. Conditions: 20 mg/kg. Here is the method: RhoA/RhoB membrane staining of tumor tissue of a H-1975 human lung cancer cell mouse model is performed as described below, and the tumor-bearing mice are treated with a THSD (here an ALSD of formula FIId, “DZ2a”, compound 7) in comparison to the corresponding unconjugated dye (“DZ1”) and to Gefinitib (an EGFR inhibitor drug used for treatment of certain breast, lung and other cancers).
H-1975 cells, a cell model for human lung cancer that is resistant to Gefitinib (an EGFR inhibitor drug used for treatment of certain breast, lung and other cancers) are cultured as described above and injected subcutaneously into mice to develop tumors. The mice and the tumors that are formed are systemically exposed to an ALSD (here of formula FIId, “DZ2a”, compound 7) by intravenous injection. The tumor-bearing mice are treated with either Gefitinib (20 mg/kg), or with an ALSD (here of formula FIId, “DZ2a”, compound 7, 5 mg/kg), an unconjugated dye of formula III (“DZ1”, 5 mg/kg) or a combination of the ALSD with Gefitinib.
For immunostaining of tumor tissue, the animals are sacrificed by prescribed and approved euthanasia techniques. Tumor tissue (maximum thickness 3 mm) is sliced, formalin fixated, embedded into paraffin blocks which are sectioned and processed into paraffin section slides. […]

For the compound `C=CC(=O)Nc1cc(Nc2nccc(-c3cn(C)c4ccccc34)n2)c(OC)cc1N(C)CCN(C)C` [AZD9291, Osimertinib], the “greater potency against L858R/T790M than wild-type EGFR” value in data set [1] was 100-200 times.

Consider `CCC(C)(C)C(=O)O[C@H]1C[C@@H](C)C=C2C=C[C@H](C)[C@H](CC[C@@H](O)C[C@@H](O)CC(=O)OCCNC(=O)CCCCCN3/C(=C/C=C4\CCCC(/C=C/C5=[N+](CCCCS(=O)(=O)O)c6ccccc6C5(C)C)=C4Cl)C(C)(C)c4ccccc43)[C@H]21` [DZ2b], for which, in data set [2], the “amount of conjugate at 3 h (value at time 0 is 100)” value is 100. The “degradation/release of the statin from the conjugate” value in data set [2] is on record as “no degradation/release”. Further, the “stability when exposed to serum” value in data set [2] was “stable and not subject to degradation”. The half-inhibitory concentration (IC50) in the data set on 22RV1 (PC) (22RV1, treated for 48 h /, relative IC50, listed as ELSD) stood at 7.8 µM; in the data set with 22RV1 (PC) (Homo sapiens, 22Rv1, 22RV1, treated for 48 h /, relative IC50), 10.8 µM; with EZ-resistant C4-2B (PC), 3.8 µM; with PC3 (PC) it was 6 µM; in the data set on A549 (LC), 5.4 µM; in the data set with A549DDP (LC), 2.1 µM. The concentration for half-maximal inhibition (IC50) is 6.4 µM with H1975 (LC); 11.8 µM in the data set with H1650 (LC); 5.6 µM in the data set on PC9 (LC); 3.4 µM with H446 (LC); 2 to 12 µM in the data set with human cancer cell lines.

For `CCC(C)(C)C(=O)O[C@H]1C[C@@H](C)C=C2C=C[C@H](C)[C@H](CC[C@@H]3C[C@@H](OC(=O)CCCCCN4/C(=C/C=C5\CCCC(/C=C/C6=[N+](CCCCS(=O)(=O)[O-])c7ccccc7C6(C)C)=C5Cl)C(C)(C)c5ccccc54)CC(=O)O3)[C@H]21` [DZ2c], in [2], the “amount of conjugate at 3 h (value at time 0 is 100)” value stood at 10; the “degradation/release of the statin from the conjugate” value was 90%; the “stability when exposed to serum” value was “less stable and more easily degrades”.

Turning to `CC(=O)O[C@@]12CO[C@@H]1C[C@H](O)[C@@]1(C)C(=O)[C@H](O)C3=C(C)[C@@H](OC(=O)[C@H](O)[C@@H](NC(=O)OC(C)(C)C)c4ccccc4)C[C@@](O)([C@@H](OC(=O)c4ccccc4)[C@H]21)C3(C)C` [Docetaxel], the entries for the “tumor suppressive activity (tumor volume increase)” value in data set [3] and in data set [3] (listed as DOC) were “no or very mild tumor suppressive activity” and “no significant tumor suppressive activity”, respectively.

With `COc1cc2ncnc(Nc3ccc(F)c(Cl)c3)c2cc1OCCCN1CCOCC1` [Gefitinib], in data set [4], the “RhoA/B staining of tumor cell membranes” value is listed as “staining persists in the membranes”.

Broadly, the IC50 is the concentration needed to halve the response being measured.
